Data from patent publication US20240189435A1, “NOVEL PEPTIDE-OLIGONUCLEOTIDE CONJUGATE AND USE THEREOF” (KOREA INSTITUTE OF SCIENCE AND TECHNOLOGY, priority 2021, published 2024).

Assays:
[1] = system: tissue inhibitor of metalloproteinase-3 (TIMP3); assay: Western blot in B16 cells, TIMP3; format: cell-based; conditions: 300 nM, serum free media, 24 hours
Experimental: (§1) B16 cells were treated with 300 nM Pep-21 in serum free media for 24 hours, protein assay was performed and western blot was performed.
(§2) miRNA-21 related markers: programmed cell death 4 (PDCD4), matrix metalloproteinase-2 (MMP2), tissue inhibitor of metalloproteinase-3 (TIMP3)

[2] = system: miRNA-21; assay: Agarose gel electrophoresis of binding to miRNA-21
Experimental: The binding affinity of miRNA-21 and Pep-21 was evaluated through agarose gel electrophoresis, compared to Free-21.
(§3) Synthetic Pep-21 (10 pmole) was reacted with miRNA-21 and negative control miRNA in 100 μL of PBS under the same conditions as above, in other words, at 37° C. for 1 hour and then whether or not pep-21 recognizes and binds to a specific sequence of miRNA-21 was identified by agarose gel electrophoresis.

[3] = system: programmed cell death 4 (PDCD4); assay: Western blot in B16 cells, PDCD4; format: cell-based; conditions: 300 nM, serum free media, 24 hours
Experimental: as §1, §2

[4] = system: B16 melanoma tumor tissue; assay: TUNEL assay on excised tumor tissue; format: in vivo, mice; conditions: 21 days, compared to the control group
Experimental: (§4) 21 days after the animal test, the excised tumor tissue was analyzed by immunofluorescence.
TUNEL assay was performed on tumor tissue to determine the degree of apoptosis.

[5] = system: B16 cells; assay: Scratch-wound healing assay in B16 cells; format: cell-based; conditions: 300 nM in serum free media 48 hours, observed 72 hours after wounding, compared to the control group
Experimental: A scratch-wound healing assay was performed in order to analyze cell migration.
B16 cells were wounded using a 200 μL pipette tip, treated with 300 nM Pep-21 in serum free media for 48 hours, and then stabilized in fresh growth media for 24 hours.

[6] = system: miRNA-21; assay: RT-PCR of miRNA-21 in M2ϕ; format: cell-based; conditions: 300 nM, 18 hours
Experimental: (§5) Real-time polymerase chain reaction (RT-PCR) was performed to determine whether or not treatment with Pep-21 inhibited the expression of miRNA-21. M2ϕ was treated with 300 nM of Pep-21 for 18 hours, RNA was isolated and then real-time polymerase chain reaction (RT-PCR) was performed.

[7] = system: TNF-α; assay: RT-PCR of inflammatory cytokines in M2ϕ, TNF-α; format: cell-based; conditions: 300 nM, 18 hours
Experimental: as §5
(§6) In addition, the expression level of inflammatory cytokines was determined through RT-PCR.

[8] = system: iNOS (M1 marker); assay: Immunofluorescence of tumor-associated macrophages, iNOS; format: in vivo, mice; conditions: tumor-associated macrophages in excised tumor tissue, 21 days
Experimental: (§7) 21 days after the animal test, tumor-associated macrophages infiltrating the excised tumor tissue were analyzed by immunofluorescence (IF).

[9] = system: M2ϕ (M2 bone marrow-derived macrophages); assay: Cellular uptake in M2 bone marrow-derived macrophages, fluorescence microscopy; format: cell-based; conditions: 300 nM Cy5-labeled, 6 hours, compared to Free-21
[10] = system: miRNA-21; assay: RT-PCR of miRNA-21 in treated cancer tissue; format: in vivo, mice; conditions: B16 tumor tissue, compared to the control group
From the text: (§8) On day 12 after tumor inoculation (tumor size of about 70 mm^3), PBS, peptide, Free-21, and Pep-21 were intratumorally injected three times at intervals of three days.

[11] = system: B16 cells; assay: Cytotoxicity in B16 cells, cell counting Kit-8 (CCK-8); format: cell-based; conditions: 300 nM, 24 hours
Experimental: (2) To determine the cytotoxicity of this substance, B16 cells were treated with 300 nM Pep-21 for 24 hours and the cytotoxicity was confirmed using cell counting Kit-8 (CCK-8).

[12] = system: B16 melanoma; assay: Anti-tumor effect in tumor animal model; format: in vivo, mice; conditions: 500 pmole intratumorally, 3 times at 3-day intervals, from day 12 after tumor inoculation
From the text: as §8

[13] = system: B16 melanoma cells; assay: Cellular uptake in B16 melanoma cells, fluorescence microscopy; format: cell-based; conditions: B16, 300 nM Cy5-labeled, 6 hours
Experimental: Melanoma cells (B16) were treated with 300 nM miRNA-21 labeled with Cy5 fluorescent dye for 6 hours and the degree of intracellular uptake was then observed with a fluorescence microscope.

[14] = system: CD31; assay: CD31 immunofluorescence of excised tumor tissue; format: in vivo, mice; conditions: 21 days, compared to the control group
Experimental: as §4
In addition, immunofluorescence was performed using CD31, an angiogenesis marker.

[15] = system: miRNA-21; assay: RT-PCR of miRNA-21 in B16 cells; format: cell-based; conditions: 300 nM, 18 hours
Experimental: (1) Real-time polymerase chain reaction (RT-PCR) was performed to determine whether or not miRNA-21 expression was inhibited by treatment with Pep-21. B16 cells were treated with 300 nM of Pep-21 for 18 hours, RNA was isolated, cDNA was synthesized, and then real-time polymerase chain reaction (RT-PCR) was performed using miRNA-21 primer.

[16] = system: matrix metalloproteinase-2 (MMP2); assay: Western blot in B16 cells, MMP2; format: cell-based; conditions: 300 nM, serum free media, 24 hours
Experimental: as §1, §2

[17] = system: IL-12; assay: RT-PCR of inflammatory cytokines in M2ϕ, IL-12; format: cell-based; conditions: 300 nM, 18 hours
Experimental: as §5, §6

[18] = system: negative control miRNA; assay: Agarose gel electrophoresis of sequence specificity with negative control miRNA; format: binding; conditions: 10 pmole in 100 μL PBS, 37° C., 1 hour
Experimental: as §3
Whether or not Pep-21 recognizes and binds to a specific sequence to miRNA-21 was determined using the negative control miRNA.

[19] = system: Arginasel (M2 marker); assay: Immunofluorescence of tumor-associated macrophages, Arginase1; format: in vivo, mice; conditions: tumor-associated macrophages in excised tumor tissue, 21 days
Experimental: as §7

Pep-21: Azide PDL1-binding peptide (N3-NYSKPTDRQYHF, d-form) click-conjugated to DBCO-anti-miR-21 DNA 5′-TCAACATCAGTCTGATAAGCTA-3′
Timp3 expression (western blot) [1]: increased
binding affinity to miRNA-21 (gel electrophoresis) ([2]; 10 pmole annealed with miR-21 (0, 0.25, 0.5, 0.75 and 1) in 100 μL PBS, 37° C., 1 hour): binding affinity increased as the concentration increased
band shift upon reaction with miRNA-21 ([2]; 10 pmole in 100 μL PBS, 37° C., 1 hour): a band shift was observed
sequence-specific recognition of miRNA-21 versus negative control miRNA ([2]; conclusion from the band shift test): selectively binds to miRNA-21
PDCD4 expression (western blot) [3]: increased
degree of apoptosis (TUNEL) [4]: increased compared to the control group
cancer cell migration [5]: further inhibited
expression of miRNA-21 (RT-PCR) [6]: inhibited expression of miRNA-21
mRNA expression of TNF-α [7]: promoted mRNA expression
iNOS (M1 marker) by IF [8]: increased
degree of uptake into cells [9]: successfully delivered anti-21 to the cytoplasm
amount of miRNA-21 expressed in cancer tissue (RT-PCR) [10]: reduced compared to the control group
cytotoxicity (CCK-8) [11]: almost no cytotoxicity
cancer growth [12]: inhibit cancer growth
degree of intracellular uptake [13]: greatly advantageous in intracellular delivery
cellular uptake when blocking with PD-L1 antibody ([13]; PD-L1 antibody blocking): cellular uptake decreased
CD31 (angiogenesis marker) expression [14]: decreased compared to the control group
expression of miRNA-21 (RT-PCR) [15]: decreased the expression of miRNA-21
MMP2 expression (western blot) [16]: decreased
mRNA expression of IL-12 [17]: promoted mRNA expression
band shift upon reaction with Neg-miRNA [18]: no band shift was observed
Arginasel (M2 marker) by IF [19]: decreased
